Source: patent publication US11613533B2, “Compounds useful for inhibiting RET kinase” (Eli Lilly and Company, priority 2020, dated 2023)
Where a chain is given by its changes, count along the chain named.

Key:
Type in all cases: biochemical
[1] = biological target: T1, wildtype RET kinase (N-terminal GST tagged recombinant human RET cytoplasmic domain, aa 658-end) (Homo sapiens, UniProt P07949); assay: RET enzyme assay (HTRF KinEASE TK), wildtype; conditions: 1 mM ATP, 60 min incubation at 22° C.
T1 construct: human RET cytoplasmic domain (aa 658-end); GST (N); purchased Eurofins 14-570M
T1 sequence (P07949 658-1114 limits assumed): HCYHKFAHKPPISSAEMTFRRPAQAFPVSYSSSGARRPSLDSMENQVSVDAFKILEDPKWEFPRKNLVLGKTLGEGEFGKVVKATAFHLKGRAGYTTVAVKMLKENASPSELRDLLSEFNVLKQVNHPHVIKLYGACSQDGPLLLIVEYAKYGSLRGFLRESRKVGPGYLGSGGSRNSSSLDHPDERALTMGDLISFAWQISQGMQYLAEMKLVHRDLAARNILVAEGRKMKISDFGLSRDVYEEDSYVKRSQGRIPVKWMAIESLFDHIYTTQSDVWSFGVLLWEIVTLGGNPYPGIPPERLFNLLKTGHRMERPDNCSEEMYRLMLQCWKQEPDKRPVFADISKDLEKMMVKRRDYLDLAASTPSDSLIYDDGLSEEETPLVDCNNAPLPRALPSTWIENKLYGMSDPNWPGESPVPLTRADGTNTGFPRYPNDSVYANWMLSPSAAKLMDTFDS
Method: (§1) Assay A: RET Enzyme Assay
(§2) Compounds of formulas I, II, or III are screened for their ability to inhibit wildtype, V804M, and G810S mutant RET kinase using CisBio's HTRF® KinEASE™TK assay technology. N-terminal GST tagged recombinant human RET cytoplasmic domain (aa 658-end) from Eurofins ([…]; Catalog No. 14-570M) or N-terminal GST tagged recombinant human V804M mutant RET cytoplasmic domain (aa 658-end) from Millipore (1.25 nM enzyme; Catalog No. 14-760) or N-Terminal GST-tagged recombinant human G810S (aa-658-end) (1.25 nM Enzyme; produced in insect cells) is incubated with 62.5 nM TK-substrate biotin (CisBio, part of Catalog No. 62TK0PEC) and 1 mM ATP along with test compound (0.4% final DMSO in the assay) in a 1× Cisbio enzymatic buffer consisting of […], 5 mM MgCl2, 0.04% BSA and 0.05% Tween20 in a volume of 10 μL. Compounds are typically prepared in a threefold serial dilution in DMSO and added to the assay to give the appropriate final concentration. After a 40-60 min (40 min for V804M, 60 min for WT and G810S) incubation at 22° C., the reaction is quenched by adding quench solution (10 μL) containing 7.8 nM Streptavidine-XL665 and 0.5×TK-ab-Cryptate in HTRF detection buffer (all from CisBio, part of Cat. No. 62TK0PEC). After a 60-80 min incubation (60 minutes for WT, 80 minutes for V804M and G810S) at 22° C., the extent of reaction is determined using a PHERastar plate reader via HTRF detection at excitation/emission 337/665 nm. Percent of inhibition is calculated with 0% inhibition referring to control conditions containing no compound (0.4% DMSO only) and 100% inhibition represented by conditions containing no enzyme. The % inhibition values are fit to a 4 parameter logistic curve, and the determined IC50 value is defined as the estimated concentration of inhibitor at the inflexion point of the fitted curve.

[2] = biological target: T2, V804M mutant RET kinase (N-terminal GST tagged recombinant human V804M mutant RET cytoplasmic domain, aa 658-end) (Homo sapiens, UniProt P07949, V804M); assay: RET enzyme assay (HTRF KinEASE TK), V804M; conditions: 1 mM ATP, 40 min incubation at 22° C.
T2 construct: human V804M mutant RET cytoplasmic domain (aa 658-end); GST (N); purchased Millipore 14-760
T2 sequence (P07949 658-1114 V804M limits assumed): T1 sequence (P07949 658-1114 limits assumed) with V147M
Method: as §1, §2

[3] = biological target: T3, G810S mutant RET kinase (N-Terminal GST-tagged recombinant human G810S, aa-658-end) (Homo sapiens, UniProt P07949, G810S); assay: RET enzyme assay (HTRF KinEASE TK), G810S; conditions: 1 mM ATP, 60 min incubation at 22° C.
T3 construct: recombinant human G810S (aa-658-end); GST (N); made in house; host or cells: insect cells
T3 sequence (P07949 658-1114 G810S limits assumed): T1 sequence (P07949 658-1114 limits assumed) with G153S
Method: as §1, §2

Measured: IC50

CC(C(=O)Nc1cc(C(C)(C)C)sn1)c1ccc(-c2nn(C(C)C)c(N)c2C(N)=O)cc1 (single isomer, unassigned; isomer 2) [Example 80, 5-Amino-3-(4-[1-[(5-tert-butyl-1,2-thiazol-3-yl)carbamoyl]ethyl]phenyl)-1-isopropylpyrazole-4-carboxamide, isomer 2]
< 100 nM: all assays above

CCC(C)(C)c1cc(NC(=O)C(C)c2ccc(-c3nn(C(C)C)c(N)c3C(N)=O)cn2)on1 (single isomer, unassigned; isomer 2) [Example 84, 5-Amino-1-isopropyl-3-[6-[2-[[3-(1,1-dimethylpropyl)isoxazol-5-yl]amino]-1-methyl-2-oxo-ethyl]-3-pyridyl]pyrazole-4-carboxamide, Isomer 2]
< 100 nM: all assays above

CC(C(=O)Nc1cc(C(C)(C)C(F)(F)F)no1)c1ccc(-c2nn(C(C)C)c(N)c2C(N)=O)cn1 (single isomer, unassigned; isomer 2) [Example 90, 5-Amino-1-isopropyl-3-[6-[1-methyl-2-oxo-2-[[3-(2,2,2-trifluoro-1,1-dimethyl-ethyl)isoxazol-5-yl]amino]ethyl]-3-pyridyl]pyrazole-4-carboxamide, Isomer 2]
< 100 nM: all assays above

CC(C(=O)Nc1cc(-c2ccc(Cl)cc2Cl)no1)c1ccc(-c2nn(C(C)C)c(N)c2C(N)=O)cn1 (single isomer, unassigned; isomer 2) [Example 94, 5-Amino-1-isopropyl-3-[6-[2-[[3-(2,4-dichlorophenyl)isoxazol-5-yl]amino]-1-methyl-2-oxo-ethyl]-3-pyridyl]pyrazole-4-carboxamide, Isomer 2]
< 100 nM: all assays above
